# Experimental data reported in US9757393B2 (priority 2015, dated 2017).
# How the values were obtained:
# [1] = system: HFD-fed C57BL/6J mice; assay: Blood glucose, HbA1c, blood lipids, insulin and leptin levels in HFD-fed mice; format: in vivo; conditions: for Blood Profiles FFA / Blood Profiles HDL-C / Blood Profiles HbA1c / Blood Profiles LDL-C: oral gavage daily for 4 weeks
# Method: (§1) Experimental Animals: the experiments are conducted under the guidelines of the Institutional Animal Care and Use Committee of Central Taiwan University of Science and Technology. As previously described, four-week-old male C57BL/6J mice (n=63) is purchased from the National Laboratory Animal Breeding and Research Center, Ministry of Science and Technology. After 1-week of acclimatization, mice are designed to initiate the study, and the study lasts for 12 weeks. […] The CON group and high-fat control (HF) group are given with vehicle only. The low-fat diet consisted of fat 10%, whereas the high-fat diet (HFD) consisted of fat 45% (of total energy, % kcal). The compositions of the experimental diets are shown as described. At the end of the study, food is derived from the animals (from 10 p.m. to 10 a.m.). On the next day, the mice are sacrificed, and blood and tissue are collected for analysis. Livers, skeletal muscles, and white adipose tissues (WATs) (including epididymal, mesenteric and retroperitoneal WAT) are excised and weighed, and then immediately stored in a freezer at −80° C. Heparin (30 units/mL) (Sigma) is added to blood samples. Plasma samples are collected by centrifugation at 1600 g for 15 min at 4° C. within 30 min, and plasma is obtained for insulin and leptin level analysis.
# Blood Glucose and HbA1c Levels. Blood samples (0.8 mL) are collected from the retro-orbital sinuses of fasting mice, and glucose level is measured by the glucose oxidase method (model 1500; Sidekick Glucose Analyzer; YSI Inc., Yellow Springs, Ohio, USA). Percent HbA1c is detected with a Hemoglobin A1c kit (BioSystems S.A., Barcelona, Spain). Plasma triglycerides (TG), total cholesterol (TC), free fatty acids (FFA), high-density lipoprotein cholesterol (HDL-C), and low density lipoprotein cholesterol (LDL-C) are determined using commercial assay kits (Triglycerides-E test, Cholesterol-E test, and FFA-C test, Wako Pure Chemical, Osaka, Japan; HDL-C-test and LDL-C-test, Roche Diagnostics GmbH, Indianapolis, USA) according to their instructions. A mouse insulin ELISA kit (Sibayagi, Gunma, Japan) and mouse leptin ELISA kit (Morinaga, Yokohama, Japan) are used to measure blood insulin and leptin levels, respectively.
# [2] = system: HFD-fed C57BL/6J mice; assay: Body weight, food intake and tissue weight in HFD-fed mice; format: in vivo; conditions: oral gavage daily for 4 weeks
# Method: as §1
# Body Weight, Food Intake and Tissue Weight. Throughout the embodiment, body weight and food intake are daily recorded at the same time. Body weight gain is defined as the difference between 1 day and the next day. The pellet food is weighed and placed in a cage food container. After 24 h, the remaining food is weighed and the crumbs are collected as much as possible. Based on the difference between 1 day and the next day, the daily food intake is calculated.
# [3] = system: HFD-fed C57BL/6J mice; assay: Hepatic lipid in HFD-fed mice; format: in vivo; conditions: oral gavage daily for 4 weeks
# Method: as §1
# Blood Lipid and Hepatic Lipid. Hepatic lipids are extracted as previously described. Liver sample (0.375 g) is homogenized with 1 mL of distilled water for 5 min for the hepatic lipid extraction and analyzed using a triglycerides kit as used for serum lipids.
# [4] = system: HFD-fed C57BL/6J mice; assay: Histopathology examination of epididymal WAT and liver tissue; format: in vivo; conditions: oral gavage daily for 4 weeks
# Method: as §1
# A portion of the collected epididymal WAT and liver tissue is fixed with formalin (200 g/kg) neutral buffered solution and embedded in paraffin. Sections (8 μm) are cut and stained with hematoxylin and eosin. A microscope (Leica, DM2500) and Leica Digital camera (DFC-425-C) are used for microscopic examination and images taken, respectively.
# [5] = system: membrane GLUT4; assay: Western blotting of membrane GLUT4 in skeletal muscle; format: in vivo, C57BL/6J mice; conditions: HFD-fed mice, 10 mg/kg/day
# Method: as §1
# Protein extractions and immunoblots for the determination of membrane GLUT4, phospho-AMPK (Thr172), and phospho-Akt (Ser 473) proteins are carried out on frozen skeletal muscle and liver tissue from mice, which follows a previous paper. Additionally, membrane GLUT4 is carried out on frozen skeletal muscle from mice, and the total membrane fractions are collected with buffer and centrifuged as a previously described. The protein contents of membrane GLUT4, phospho-AMPK, phospho-Akt, total AMPK, and total Akt are detected by western blotting. Western blotting has been determined as described elsewhere. Subsequently, antibodies are detected using horseradish peroxidase linked to a goat anti-IgG rabbit secondary antibody and visualized using an ECL system. Membrane GLUT4, structural proteins GAPDH and β-actin are purchased from Santa Cruz Biotechnology (Santa Cruz, Calif., USA); phospho-AMPK was obtained from Abcam Inc. (Cambridge, Mass., USA); phospho-Akt, total AMPK, and total Akt are from Cell Signaling Technology, Inc. (Danver Mass., USA); the BCA protein assay kit is from Thermo Scientific (Rockford, Ill., USA); and the ECL reagent kit is from GE Healthcare BioSciences (Buckinghamshire, UK). The secondary antibody antirabbit is from Jackson ImmunoResearch Laboratories, Inc. (West Grove, Pa., USA). The density blotting is analyzed using Alpha Easy FC software (Alpha Innotech Corp., Randburg, South Africa). Structural proteins GAPDH and β-actin are obtained by stripping the nitrocellulose membrane proteins of liver and skeletal muscle, respectively.
structure (smiles),measurement,setting,value
"CC(C)OC(=O)C(C)(C)Oc1ccc(C(=O)c2ccc(Cl)cc2)cc1 [Feno, fenofibrate, reference compound]",decrease of the circulating TG level,[1]; 250 mg/kg/day,47.9%
same,Blood Profiles FFA,[1]; 250 mg/kg/day,0.94 ± 0.08 meq/L
same,Blood Profiles HDL-C,[1]; 250 mg/kg/day,80.3 ± 4.5 mg/dL
same,Blood Profiles HbA1c,[1]; 250 mg/kg/day,6.4 ± 0.7 %
same,Blood Profiles LDL-C,[1]; 250 mg/kg/day,105.8 ± 10.4 mg/dL
same,Absolute Tissue Weight BAT,[2]; 250 mg/kg/day,0.142 ± 0.012 g
same,Absolute Tissue Weight EWAT,[2]; 250 mg/kg/day,0.924 ± 0.069 g
same,Absolute Tissue Weight Liver,[2]; 250 mg/kg/day,1.046 ± 0.033 g
same,Absolute Tissue Weight MWAT,[2]; 250 mg/kg/day,0.295 ± 0.009 g
same,Absolute Tissue Weight RWAT,[2]; 250 mg/kg/day,0.249 ± 0.028 g
same,Absolute Tissue Weight Skeletal muscle,[2]; 250 mg/kg/day,0.569 ± 0.069 g
same,weight gain,[2]; 250 mg/kg/day,0.69 ± 0.63 g
same,Liver Lipids total lipid,[3]; 250 mg/kg/day,63.8 ± 4.7 mg/g
same,Liver Lipids triacylglycerol,[3]; 250 mg/kg/day,48.4 ± 5.6 µmol/g
same,average area of adipocytes (epididymal WAT),[4]; 250 mg/kg/day,4175.4±322.9 μm2
"CN(CCOc1ccc(CC2SC(=O)NC2=O)cc1)c1ccccn1 (stereo not drawn) [Rosi, rosiglitazone, reference compound]",Blood Profiles FFA,[1]; 10 mg/kg/day,1.00 ± 0.09 meq/L
same,Blood Profiles HDL-C,[1]; 10 mg/kg/day,73.1 ± 5.8 mg/dL
same,Blood Profiles HbA1c,[1]; 10 mg/kg/day,6.2 ± 0.4 %
same,Blood Profiles LDL-C,[1]; 10 mg/kg/day,86.7 ± 7.7 mg/dL
same,Absolute Tissue Weight BAT,[2]; 10 mg/kg/day,0.175 ± 0.018 g
same,Absolute Tissue Weight EWAT,[2]; 10 mg/kg/day,0.813 ± 0.069 g
same,Absolute Tissue Weight Liver,[2]; 10 mg/kg/day,0.816 ± 0.038 g
same,Absolute Tissue Weight MWAT,[2]; 10 mg/kg/day,0.257 ± 0.019 g
same,Absolute Tissue Weight RWAT,[2]; 10 mg/kg/day,0.244 ± 0.042 g
same,Absolute Tissue Weight Skeletal muscle,[2]; 10 mg/kg/day,0.737 ± 0.094 g
same,weight gain,[2]; 10 mg/kg/day,1.71 ± 0.56 g
same,Liver Lipids total lipid,[3]; 10 mg/kg/day,65.1 ± 5.3 mg/g
same,Liver Lipids triacylglycerol,[3]; 10 mg/kg/day,44.5 ± 3.2 µmol/g
same,enhancement of muscular membrane GLUT4 protein,[5],~2.1 fold
same,average area of adipocytes (epididymal WAT),[4]; 10 mg/kg/day,5598.6±162.7 μm2
